What was measured:
[1] = target: T1, HEK293 cells forced to express URAT1 (Homo sapiens, UniProt Q96S37); assay: URAT1 inhibitory effect, [8-14C] uric acid uptake; type: cell-based; details: test compound 100 μmol/L, 20 μmol/L uric acid, 5 minutes uptake
T1 construct: host or cells: HEK293
T1 sequence (Q96S37 1-553): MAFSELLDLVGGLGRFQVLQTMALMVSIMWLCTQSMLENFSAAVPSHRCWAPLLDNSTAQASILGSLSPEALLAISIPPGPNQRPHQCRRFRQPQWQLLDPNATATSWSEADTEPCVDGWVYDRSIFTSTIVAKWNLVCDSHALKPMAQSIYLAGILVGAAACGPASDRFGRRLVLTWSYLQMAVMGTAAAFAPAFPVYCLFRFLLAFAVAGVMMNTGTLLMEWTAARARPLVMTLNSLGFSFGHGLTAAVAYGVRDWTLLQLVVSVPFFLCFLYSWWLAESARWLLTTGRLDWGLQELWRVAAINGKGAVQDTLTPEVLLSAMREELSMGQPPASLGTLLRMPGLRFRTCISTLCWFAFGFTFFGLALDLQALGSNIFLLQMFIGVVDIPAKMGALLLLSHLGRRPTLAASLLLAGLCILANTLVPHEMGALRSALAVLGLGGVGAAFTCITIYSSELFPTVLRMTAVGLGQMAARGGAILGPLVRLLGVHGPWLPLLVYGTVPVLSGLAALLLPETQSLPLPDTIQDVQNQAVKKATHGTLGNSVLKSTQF
Text: DMEM containing 10% FBS (supplemented with 0.05% geneticin, Nissui Pharmaceutical Co., Ltd.), HEK293 cells forced to express URAT1 (HCS (Human cell Systems), (Fuji Biomedix)), HBSS as washing buffer and HBSS substituted with Na-gluconate (NaCl in HBSS was substituted with Na-gluconate) were used for assay. [8-^14C] uric acid (moravek) was used as an uric acid reagent and added to assay buffer at 20 μmol/L as a final concentration. Compounds of the present invention were used as a test compound, 20 mmol/L stock solution of each test compound (DMSO solution) was diluted appropriately, and then the diluted test compound solution was added to assay buffer at 100 μmol/L as a final concentration including 0.5% final concentration of DMSO.
To prepare assay plates, at first, cells on subculture petri dish were peeled off using treatment of 0.05% trypsin-EDTA solution, and then seeded on Biocoat Poly-D-Lysine Cellware 24 well plate (BECTON DICKINSON) at a density of 2×10^5 cells/well and cultured for 2 days.
For the uptake study, at first, culture medium was removed by aspiration and cells were washed twice with HBSS (37° C.), then the buffer was replaced with 1 mL of assay buffer (37° C.). Cells were pre-incubated for 10 minutes. And then, the buffer was removed by aspiration and 0.5 mL of radioisotope ligand solution incubated at 37° C. was added, then cells were incubated for 5 minutes. After uptake, radioisotope solution was removed by aspiration, and immediately cells were washed three times with ice-cold HBSS, followed by resolving by addition of 0.5 mL of 0.5 mol/L NaOH. Cell lysate solution was transferred to a vial or 24 well plate for Betaplate, and mixed with 0.5 mL of liquid scintillator (Optiphase ‘Super Mix’; Perkin Elmer). Radioisotope activity was measured (using Betaplate 1450). As mean count in control solution not including test compound was 100%, percent inhibition was calculated by determining percent decrease in mean count in solution including test compound from mean count in control solution.

[2] = tested on: potassium oxonate induced hyperuricemia; assay: Blood hypouricemic effect, potassium oxonate induced hyperuricemia; type: in vivo; details: Rattus norvegicus, po, male SD rats, serum 2 hours after administration, read-out: Decrease (%) in UA concentration; for inhibition in vivo at 10 mg/kg: 10 mg/kg orally
Method: Effect of compound of the present invention as a test compound was studied on potassium oxonate induced hyperuricemia with male 7-week-old SD rats (Charles River Japan) and potassium oxonate (Aldrich) suspended in 1% gum arabic solution. Test compound was suspended in 0.5% CMC-Na solution, and then administered orally. Dosing was 10 mg/kg or 50 mg/kg. All volume of administered solution was 10 mL/kg. Potassium oxonate 250 mg/kg was administered to dorsal region of rats subcutaneously, 1 hour later each test compound was administered orally. For control group, only 0.5% CMC-Na solution as a vehicle was administrated. At 2 hours after administration of test compounds or vehicle, blood was collected under ether anesthesia, and serum was separated according to general method. Treated number was 5 for each group.
Measurement of concentration of uric acid was conducted with following prepared reagents. The deproteinization reagent was prepared in the following manner; 100 g of sodium tungstate was added to a 2 L flask, and exactly 75 mL of 85% phosphoric acid and 500 mL of water were added to the flask equipped with a reflux condenser, and heated for an hour. After cooling, the resulting faint yellow-green solution was diluted to 1 L exactly. Sodium carbonate-urea reagent was prepared in the following manner; 14 g of anhydrous sodium carbonate and 14 g of urea were dissolved in water and final volume of the solution was adjusted to 100 mL exactly. Phosphotungstic coloring reagent was prepared in 4-fold dilution of deproteinzation reagent described above with water. UA standard solution (10 mg/dL: Kyokuto pharmaceutical industrial CO., LTD) was used as an uric acid standard solution, and then serially diluted uric acid standard solution with purified water was also used for standard curve.
Three hundred μL of serum or standard was added to 2.1 mL of purified water, and then 150 μL of deproteination reagent was also added to the solution, followed by mixing. After incubating for 20 minutes, the mixture was centrifuged at 3000 rpm for 10 minutes. Sodium carbonate-urea reagent (0.5 mL) was added to 1.5 mL of supernatant, and the mixture was incubated for 20 minutes. Next, after addition of 250 μL of coloring reagent, further incubation was carried over 15 minutes. Absorbance at 660 nm was measured, and concentration of uric acid was calculated with standard curve. Percent decrease in concentration of uric acid was calculated by following formula. Percent decrease in concentration of uric acid (%)=(A−B)/A×100
In formula, A means average of concentration of blood uric acid in control group, B means average of concentration of blood uric acid in test compounds-treated group.

[3] = target: T2, xanthine oxidase (from buttermilk) (Bos taurus, UniProt P80457); assay: Xanthine oxidase inhibitory effect; type: biochemical; details: 100 μmol/L xanthine, 5 mU/mL enzyme; read-out: X.O. inhibition IC50
T2 construct: xanthine oxidase (from buttermilk; biozyme laboratories); purchased biozyme laboratories; host or cells: buttermilk (natural source)
T2 sequence (P80457 whole entry): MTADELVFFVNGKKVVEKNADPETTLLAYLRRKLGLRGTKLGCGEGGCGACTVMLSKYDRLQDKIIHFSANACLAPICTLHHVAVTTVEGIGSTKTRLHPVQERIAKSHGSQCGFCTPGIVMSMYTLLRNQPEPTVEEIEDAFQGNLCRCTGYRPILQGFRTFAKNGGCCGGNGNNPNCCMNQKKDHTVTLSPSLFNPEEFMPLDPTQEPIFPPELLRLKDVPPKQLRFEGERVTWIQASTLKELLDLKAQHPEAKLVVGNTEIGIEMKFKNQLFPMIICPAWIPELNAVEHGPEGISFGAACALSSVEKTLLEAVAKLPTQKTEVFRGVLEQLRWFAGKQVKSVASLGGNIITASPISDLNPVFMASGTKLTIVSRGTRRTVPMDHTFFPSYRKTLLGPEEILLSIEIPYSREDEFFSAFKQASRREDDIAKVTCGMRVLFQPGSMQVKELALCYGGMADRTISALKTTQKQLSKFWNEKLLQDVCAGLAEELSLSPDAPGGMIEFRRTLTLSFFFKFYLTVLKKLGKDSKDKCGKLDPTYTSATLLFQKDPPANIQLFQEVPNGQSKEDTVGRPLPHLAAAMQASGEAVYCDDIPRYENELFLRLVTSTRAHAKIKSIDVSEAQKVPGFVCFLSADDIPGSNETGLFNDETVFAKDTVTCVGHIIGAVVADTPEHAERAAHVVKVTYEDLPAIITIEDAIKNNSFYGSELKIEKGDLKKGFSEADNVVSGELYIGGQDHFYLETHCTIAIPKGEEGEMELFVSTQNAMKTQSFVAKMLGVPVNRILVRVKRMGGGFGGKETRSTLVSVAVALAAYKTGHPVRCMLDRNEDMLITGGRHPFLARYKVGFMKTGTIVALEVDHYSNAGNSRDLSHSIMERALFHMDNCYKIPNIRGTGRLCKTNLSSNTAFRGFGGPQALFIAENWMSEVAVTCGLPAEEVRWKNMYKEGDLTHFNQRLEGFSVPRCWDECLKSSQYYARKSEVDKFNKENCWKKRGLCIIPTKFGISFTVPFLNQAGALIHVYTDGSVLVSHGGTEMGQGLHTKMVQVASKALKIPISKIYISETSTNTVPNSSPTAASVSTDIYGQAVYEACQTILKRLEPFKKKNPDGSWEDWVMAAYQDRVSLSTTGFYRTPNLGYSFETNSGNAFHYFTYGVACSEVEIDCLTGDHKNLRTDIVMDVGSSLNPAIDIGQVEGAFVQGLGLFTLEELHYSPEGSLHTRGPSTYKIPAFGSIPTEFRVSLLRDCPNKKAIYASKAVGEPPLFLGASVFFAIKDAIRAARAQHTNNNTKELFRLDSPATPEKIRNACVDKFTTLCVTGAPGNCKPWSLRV
Method: Assay for inhibition of xanthine oxidase was performed in 100 μmol/L substrate concentration (final concentration), 5 mU/mL enzyme concentration (final concentration) and compounds of the present invention as test compounds which were prepared with xanthine oxidase (from buttermilk; biozyme laboratories), xanthine (Sigma) and phosphate-buffered saline (PBS). In addition, all test compounds were frozen for preservation in condition of 20 mmol/L DMSO solution and used for experiments after thawing at need. Method is following: after diluted solution of test compound was added to 90 μL of 11.1 mU/mL enzyme solution, the mixture was incubated for 10 minutes after mixing. To start reaction, 100 μL of 200 μmol/L substrate solution was added to there, 10 minutes later, the reaction was stopped by addition of 500 μL of 0.5 mol/L sulfuric acid, and then absorbance at […] was measured. Final concentration of test compound was a single concentration, 10 μmol/L in single well for initial screening and 6 concentrations, 10, 1 μmol/L, 100, 10, 1 nmol/L, 100 pmol/L in duplicate for assay to calculate 50% inhibitory concentration (IC50) which were used for assay. Percent inhibition was calculated according to the formula described below. Percent inhibition (%)=(A−B)/(A−C)×100
In formula, A means absorbance in wells without test compound, B means absorbance in wells with test compound, C means absorbance in blank wells.
IC50 value was calculated from percent inhibition in each concentration by nonlinear regression method.

Structure (SMILES)	inhibition at 100 µM [1] [%]	IC50 [3] [nM]	inhibition in vivo at 10 mg/kg [2] [%]	inhibition in vivo at 50 mg/kg ([2]; 50 mg/kg orally) [%]
N#Cc1cn(-c2ccc(C(=O)O)cc2)cc1-c1ccsc1 [XO-B418]	62.6	4.63	79.1	
N#Cc1cn(-c2ccc(C(=O)O)cc2)cc1-c1ccc2c(c1)OCCO2 [XO-B434]	68.8	3.82	63.2	
Cc1ccc2c(c1)c(C#N)cn2-c1ccc(C(=O)O)cc1 [XO-CH164]	92.3	13.8		51.4
N#Cc1cn(-c2ccc(C(=O)O)cc2)c2cc3c(cc12)OCO3 [XO-CH199]	91.5	49.1		
N#Cc1cn(-c2ccc(C(=O)O)cc2)c2cc(Cl)ccc12 [XO-CH209]	97.1	60.8		
COc1cccc2c1c(C#N)cn2-c1ccc(C(=O)O)cc1 [XO-CH211]	81.1	16.4		
N#Cc1cn(-c2ccc(C(=O)O)cc2)nc1-c1cccs1 [XO-TT508]	67.1	3.74		
N#Cc1cn(-c2ccc(C(=O)O)cc2)nc1-c1ccsc1 [XO-TT571]	70.8	4.79	62	

More lines, in order of falling IC50 [3], values ahead:

inhibition at 100 µM [1] [%]	IC50 [3] [nM]	Structure (SMILES)	inhibition in vivo at 10 mg/kg [2] [%]	inhibition in vivo at 50 mg/kg ([2]; 50 mg/kg orally) [%]
92.4	99.2	N#Cc1cn(-c2ccc(C(=O)O)cc2)c2ncc(Br)cc12 [XO-KT16]		
93.9	96.5	COc1ccc2c(C#N)cn(-c3ccc(C(=O)O)cc3)c2c1 [XO-CH207]		
88.6	50.5	N#Cc1cn(-c2ccc(C(=O)O)cc2)c2cccc(Cl)c12 [XO-CH201]		
80.6	14.5	COc1ccc2c(c1)c(C#N)cn2-c1ccc(C(=O)O)cc1 [XO-CH183]		
59.5	5.98	N#Cc1cn(-c2ccc(C(=O)O)cc2)cc1-c1cccs1 [XO-B401]	78.8	
55.5	4.73	Cc1ccsc1-c1cn(-c2ccc(C(=O)O)cc2)cc1C#N [XO-B407]	76.9	
